Laboratory results reported in patent US20260297081A1, “COMPOUNDS AND METHODS OF TREATING CANCERS” (Cullgen Inc., priority 2023, published 2026).

These compounds were tested on MCF7 cells (assay: Anti-proliferation (viability) of MCF7 cells (Table 7, FIG. 2B)). Details: Homo sapiens, MCF7, MCF7 cells, 3-6 days, 10-point serial dilution; read-out: GI IC50 in MCF-7.
Type: cell-based

IC50 [nM] | Compound
> 100 | CCCn1nc(NC(=O)c2ccc(NC)nc2NC2CC3(CC(NC(=O)CN4CCN(c5ccc(Nc6ncc7c(C)c(C(C)=O)c(=O)n(C8CCCC8)c7n6)nc5)CC4)C3)C2)cc1C (stereo not drawn) [CPD-314, 2-((6-(2-(4-(6-((6-acetyl-8-cyclopentyl-5-methyl-7-oxo-7,8-dihydropyrido[2,3-d]pyrimidin-2-yl)amino)pyridin-3-yl)piperazin-1-yl)acetamido)spiro[3.3]heptan-2-yl)amino)-N-(5-methyl-1-propyl-1H-pyrazol-3-yl)-6-(methylamino)nicotinamide]
> 100 | CNc1ccc(C(=O)Nc2cc(C)n(C3CC3)n2)c(NC2CC3(CC(NC(=O)CN4CCN(c5ccc(Nc6ncc7c(C)c(C(C)=O)c(=O)n(C8CCCC8)c7n6)nc5)CC4)C3)C2)n1 (stereo not drawn) [CPD-315, 2-((6-(2-(4-(6-((6-acetyl-8-cyclopentyl-5-methyl-7-oxo-7,8-dihydropyrido[2,3-d]pyrimidin-2-yl)amino)pyridin-3-yl)piperazin-1-yl)acetamido)spiro[3.3]heptan-2-yl)amino)-N-(1-cyclopropyl-5-methyl-1H-pyrazol-3-yl)-6-(methylamino)nicotinamide]
> 100 | CC(=O)c1c(C)c2cnc(Nc3ccc(N4CCN(CC(=O)NC5CC6(C5)CC(Oc5nc(NC(C)C)ccc5C(=O)Nc5cn(C)c(C7CC7)n5)C6)CC4)cn3)nc2n(C2CCCC2)c1=O (stereo not drawn) [CPD-317, 2-((6-(2-(4-(6-((6-acetyl-8-cyclopentyl-5-methyl-7-oxo-7,8-dihydropyrido[2,3-d]pyrimidin-2-yl)amino)pyridin-3-yl)piperazin-1-yl)acetamido)spiro[3.3]heptan-2-yl)oxy)-N-(2-cyclopropyl-1-methyl-1H-imidazol-4-yl)-6-(isopropylamino)nicotinamide]
> 100 | CC(=O)c1c(C)c2cnc(Nc3ccc(N4CCN(CC(=O)NC5CC6(C5)CC(Nc5nc(CC(C)C)ccc5C(=O)Nc5cn(C)c(C7CC7)n5)C6)CC4)cn3)nc2n(C2CCCC2)c1=O (stereo not drawn) [CPD-318, 2-((6-(2-(4-(6-((6-acetyl-8-cyclopentyl-5-methyl-7-oxo-7,8-dihydropyrido[2,3-d]pyrimidin-2-yl)amino)pyridin-3-yl)piperazin-1-yl)acetamido)spiro[3.3]heptan-2-yl)amino)-N-(2-cyclopropyl-1-methyl-1H-imidazol-4-yl)-6-isobutylnicotinamide]
> 100 | CNc1ccc(C(=O)Nc2ccc(N(C)C)nn2)c(NC2CC(N3CCC(CN4CCN(c5ccc(Nc6ncc7c(C)c(C(C)=O)c(=O)n(C8CCCC8)c7n6)nc5)CC4)C3)C2)n1 (stereo not drawn) [CPD-319, 2-((3-(3-((4-(6-((6-acetyl-8-cyclopentyl-5-methyl-7-oxo-7,8-dihydropyrido[2,3-d]pyrimidin-2-yl)amino)pyridin-3-yl)piperazin-1-yl)methyl)pyrrolidin-1-yl)cyclobutyl)amino)-N-(6-(dimethylamino)pyridazin-3-yl)-6-(methylamino)nicotinamide]
> 100 | CNc1ccc(C(=O)Nc2cn(C)c(C3CC3)n2)c(NC2CC3(C2)CN(C(=O)C2CC24CCN(c2ccc(Nc5ncc6c(C)c(C(C)=O)c(=O)n(C7CCCC7)c6n5)nc2)CC4)C3)n1 (stereo not drawn) [CPD-320, 2-((2-(6-(6-((6-acetyl-8-cyclopentyl-5-methyl-7-oxo-7,8-dihydropyrido[2,3-d]pyrimidin-2-yl)amino)pyridin-3-yl)-6-azaspiro[2.5]octane-1-carbonyl)-2-azaspiro[3.3]heptan-6-yl)amino)-N-(2-cyclopropyl-1-methyl-1H-imidazol-4-yl)-6-(methylamino)nicotinamide]
> 100 | CNc1ccc(C(=O)Nc2cn(C)c(C3CC3)n2)c(NC2CC3(C2)CN(C(=O)C2CC4(CCN(c5ccc(Nc6ncc7c(C)c(C(C)=O)c(=O)n(C8CCCC8)c7n6)nc5)CC4)C2)C3)n1 (stereo not drawn) [CPD-321, 2-((2-(7-(6-((6-acetyl-8-cyclopentyl-5-methyl-7-oxo-7,8-dihydropyrido[2,3-d]pyrimidin-2-yl)amino)pyridin-3-yl)-7-azaspiro[3.5]nonane-2-carbonyl)-2-azaspiro[3.3]heptan-6-yl)amino)-N-(2-cyclopropyl-1-methyl-1H-imidazol-4-yl)-6-(methylamino)nicotinamide]
> 100 | CNc1ccc(C(=O)Nc2ccc(N(C)C)nn2)c(NC2CC3(C2)CN(C(=O)C2CC4(CCN(c5ccc(Nc6ncc7c(C)c(C(C)=O)c(=O)n(C8CCCC8)c7n6)nc5)CC4)C2)C3)n1 (stereo not drawn) [CPD-325, 2-((2-(7-(6-((6-acetyl-8-cyclopentyl-5-methyl-7-oxo-7,8-dihydropyrido[2,3-d]pyrimidin-2-yl)amino)pyridin-3-yl)-7-azaspiro[3.5]nonane-2-carbonyl)-2-azaspiro[3.3]heptan-6-yl)amino)-N-(6-(dimethylamino)pyridazin-3-yl)-6-(methylamino)nicotinamide]
> 100 | CC(=O)c1c(C)c2cnc(Nc3ccc(N4CCN(C(C)C(=O)NC5CC(Nc6nc(NC(C)C)ccc6C(=O)Nc6cn(C)c(C7CC7)n6)C5)CC4)cn3)nc2n(C2CCCC2)c1=O (stereo not drawn) [CPD-327, 2-((3-(2-(4-(6-((6-acetyl-8-cyclopentyl-5-methyl-7-oxo-7,8-dihydropyrido[2,3-d]pyrimidin-2-yl)amino)pyridin-3-yl)piperazin-1-yl)propanamido)cyclobutyl)amino)-N-(2-cyclopropyl-1-methyl-1H-imidazol-4-yl)-6-(isopropylamino)nicotinamide]
> 100 | CNc1ccc(C(=O)Nc2ccc(N(C)C)nn2)c(NC2CCN(C(=O)C3CC4(CCN(c5ccc(Nc6ncc7c(C)c(C(C)=O)c(=O)n(C8CCCC8)c7n6)nc5)CC4)C3)CC2)n1 [CPD-329, 2-((1-(7-(6-((6-acetyl-8-cyclopentyl-5-methyl-7-oxo-7,8-dihydropyrido[2,3-d]pyrimidin-2-yl)amino)pyridin-3-yl)-7-azaspiro[3.5]nonane-2-carbonyl)piperidin-4-yl)amino)-N-(6-(dimethylamino)pyridazin-3-yl)-6-(methylamino)nicotinamide]
> 100 | CNc1ccc(C(=O)Nc2cn(C)c(C(C)O)n2)c(NC2CC3(CC(NC(=O)CN4CCN(c5ccc(Nc6ncc7c(C)c(C(C)=O)c(=O)n(C8CCCC8)c7n6)nc5)CC4)C3)C2)n1 (stereo not drawn) [CPD-330, 2-((6-(2-(4-(6-((6-acetyl-8-cyclopentyl-5-methyl-7-oxo-7,8-dihydropyrido[2,3-d]pyrimidin-2-yl)amino)pyridin-3-yl)piperazin-1-yl)acetamido)spiro[3.3]heptan-2-yl)amino)-N-(2-(1-hydroxyethyl)-1-methyl-1H-imidazol-4-yl)-6-(methylamino)nicotinamide]
> 100 | CNc1ccc(C(=O)Nc2ccc(N(C)C)nn2)c(NC2CC(C(=O)N3CC4(CCN(c5ccc(Nc6ncc7c(C)c(C(C)=O)c(=O)n(C8CCCC8)c7n6)nc5)CC4)C3)C2)n1 (stereo not drawn) [CPD-331, 2-((3-(7-(6-((6-acetyl-8-cyclopentyl-5-methyl-7-oxo-7,8-dihydropyrido[2,3-d]pyrimidin-2-yl)amino)pyridin-3-yl)-2,7-diazaspiro[3.5]nonane-2-carbonyl)cyclobutyl)amino)-N-(6-(dimethylamino)pyridazin-3-yl)-6-(methylamino)nicotinamide]
> 100 | CNc1ccc(C(=O)Nc2ccc(N(C)C)nn2)c(NC2CC(C(=O)N3CC(N4CCN(c5ccc(Nc6ncc7c(C)c(C(C)=O)c(=O)n(C8CCCC8)c7n6)nc5)CC4)C3)C2)n1 (stereo not drawn) [CPD-332, 2-((3-(3-(4-(6-((6-acetyl-8-cyclopentyl-5-methyl-7-oxo-7,8-dihydropyrido[2,3-d]pyrimidin-2-yl)amino)pyridin-3-yl)piperazin-1-yl)azetidine-1-carbonyl)cyclobutyl)amino)-N-(6-(dimethylamino)pyridazin-3-yl)-6-(methylamino)nicotinamide]
> 100 | CNc1ccc(C(=O)Nc2ccc(N(C)C)nn2)c(NC2CC(n3cc(CN4CCN(c5ccc(Nc6ncc7c(C)c(C(C)=O)c(=O)n(C8CCCC8)c7n6)nc5)CC4)nn3)C2)n1 (stereo not drawn) [CPD-335, 2-((3-(4-((4-(6-((6-acetyl-8-cyclopentyl-5-methyl-7-oxo-7,8-dihydropyrido[2,3-d]pyrimidin-2-yl)amino)pyridin-3-yl)piperazin-1-yl)methyl)-1H-1,2,3-triazol-1-yl)cyclobutyl)amino)-N-(6-(dimethylamino)pyridazin-3-yl)-6-(methylamino)nicotinamide]
> 100 | CNc1ccc(C(=O)Nc2ccc(N(C)C)nn2)c(N[C@H]2C[C@@H](CN3CCC(CN4CCN(c5ccc(Nc6ncc7c(C)c(C(C)=O)c(=O)n(C8CCCC8)c7n6)nc5)CC4)C3)C2)n1 (stereo partly drawn) [CPD-336]
> 100 | CNc1ccc(C(=O)Nc2ccc(N(C)C)nn2)c(NC2CC(C(=O)N3CCC4(CC3)CCN(c3ccc(Nc5ncc6c(C)c(C(C)=O)c(=O)n(C7CCCC7)c6n5)nc3)CC4)C2)n1 (stereo not drawn) [CPD-337, 2-((3-(9-(6-((6-acetyl-8-cyclopentyl-5-methyl-7-oxo-7,8-dihydropyrido[2,3-d]pyrimidin-2-yl)amino)pyridin-3-yl)-3,9-diazaspiro[5.5]undecane-3-carbonyl)cyclobutyl)amino)-N-(6-(dimethylamino)pyridazin-3-yl)-6-(methylamino)nicotinamide]
50 to 100 | [2H]C([2H])([2H])Nc1ccc(C(=O)Nc2cn(C)c(C3CC3)n2)c(NC2CC3(C2)CN(C(=O)CC(C)N2CCN(c4ccc(Nc5ncc6c(C)c(C(C)=O)c(=O)n(C7CCCC7)c6n5)nc4)CC2)C3)n1 (stereo not drawn) [CPD-339, 2-((2-(3-(4-(6-((6-acetyl-8-cyclopentyl-5-methyl-7-oxo-7,8-dihydropyrido[2,3-d]pyrimidin-2-yl)amino)pyridin-3-yl)piperazin-1-yl)butanoyl)-2-azaspiro[3.3]heptan-6-yl)amino)-N-(2-cyclopropyl-1-methyl-1H-imidazol-4-yl)-6-((methyl-d3)amino)nicotinamide]

Same assay, conditions: MCF7 cells, 3-6 days, 10-point serial dilution; read-out: GI IC50 in MCF-7

Compound | IC50 [nM]
CNc1ccc(C(=O)Nc2ccc(N(C)C)nn2)c(NC2CC(C(=O)N3CCC(N4CCN(c5ccc(Nc6ncc7c(C)c(C(C)=O)c(=O)n(C8CCCC8)c7n6)nc5)CC4)CC3)C2)n1 (stereo not drawn) [CPD-334] | > 100
